From patent US12582681B2, “Fermented milk product for administration in canids such as dogs, and uses thereof” (priority 2019, dated 2026)
Converted amounts (≈) assume the structure as drawn. Like-named read-outs stand apart in the source and are kept apart here.

How the values were obtained:
S. aureus ATCC25923 = assay: Broth microdilution MIC, control strain; format: cell-based; details: for Category: against CLSI values; on Category: key: S, susceptible; R, resistant
[1] = test system: Lactobacillus reuteri CECT 9859; assay: Broth microdilution MIC (MRS and LSM medium); format: cell-based; details: for Category (LSM) / Category (MRS): against EFSA (2018) breakpoints; on Category (LSM): key: S, susceptible; R, resistant; on Category (MRS): key: S, susceptible; R, resistant
[2] = Staphylococcus aureus, ATCC25923, MH medium, control strain, read-out: MIC
[3] = Limosilactobacillus reuteri, CECT9859, 24 h, LSM medium, anaerobic, 37° C., 24 h, read-out: MIC
[4] = Limosilactobacillus reuteri, CECT9859, 24 h, MRS medium, anaerobic, 37° C., 24 h, read-out: MIC
[5] = Staphylococcus aureus, ATCC25923

Row | Compound | Category (S. aureus ATCC25923; MH medium) | MIC (S. aureus ATCC25923; [2]) | Category (LSM) ([1]; LSM medium) | MIC [1, 3] | MIC [1, 4] | Category (MRS) ([1]; MRS medium) | MIC (S. aureus ATCC25923; [5]) | MIC ([1]; Limosilactobacillus reuteri, CECT9859, 24 h) | Susceptibility of the strain ([1]; MRS and LSM) | MIC (S. aureus ATCC25923; MH medium, control strain) | MIC ([1]; LSM medium, anaerobic, 37° C., 24 h) | MIC ([1]; MRS medium, anaerobic, 37° C., 24 h)
1 | CC1(C)S[C@@H]2[C@H](NC(=O)[C@H](N)c3ccccc3)C(=O)N2[C@H]1C(=O)O [Ampicillin] | S | 0.125 µg/mL (≈ 0.358 µM) | S | 0.25 µg/mL (≈ 0.715 µM) | 0.25 µg/mL (≈ 0.715 µM) | S | – | – | – | – | – | –
2 | O=C(N[C@H](CO)[C@H](O)c1ccc([N+](=O)[O-])cc1)C(Cl)Cl [Chloramphenicol] | S | 4 µg/mL (≈ 12.4 µM) | S | 4 µg/mL (≈ 12.4 µM) | 4 µg/mL (≈ 12.4 µM) | S | – | – | – | – | – | –
3 | CCC[C@@H]1C[C@@H](C(=O)N[C@@H]([C@H]2O[C@H](SC)[C@H](O)[C@@H](O)[C@H]2O)[C@H](C)Cl)N(C)C1 [Clindamycin] | S | – | S | 0.25 µg/mL (≈ 0.588 µM) | 0.25 µg/mL (≈ 0.588 µM) | S | 0.125 µg/mL (≈ 0.294 µM) | – | – | – | – | –
4 | CC[C@H]1OC(=O)[C@H](C)[C@@H](O[C@H]2C[C@@](C)(OC)[C@@H](O)[C@H](C)O2)[C@H](C)[C@@H](O[C@@H]2O[C@H](C)C[C@H](N(C)C)[C@H]2O)[C@](C)(O)C[C@@H](C)C(=O)[C@H](C)[C@@H](O)[C@]1(C)O [Erythromycin] | S | – | S | – | 0.25 µg/mL (≈ 0.341 µM) | S | 0.125 µg/mL (≈ 0.17 µM) | 0.125 µg/mL (≈ 0.17 µM) | – | – | – | –
5 | NC[C@H]1O[C@H](O[C@H]2[C@H](O)[C@@H](O[C@H]3O[C@H](CO)[C@@H](O)[C@H](N)[C@H]3O)[C@H](N)C[C@@H]2N)[C@H](O)[C@@H](O)[C@@H]1O [Kanamycin] | S | 2 µg/mL (≈ 4.13 µM) | S | 64 µg/mL (≈ 132 µM) | 512 µg/mL (≈ 1060 µM) | R | – | – | – | – | – | –
6 | [H]/N=C(/N)N[C@H]1[C@H](O)[C@@H](O)[C@H](O[C@@H]2O[C@@H](C)[C@](O)(C=O)[C@H]2O[C@@H]2O[C@@H](CO)[C@H](O)[C@@H](O)[C@@H]2NC)[C@@H](N/C(N)=N\[H])[C@@H]1O [Streptomycin] | – | 2 µg/mL (≈ 3.44 µM) | S | 16 µg/mL (≈ 27.5 µM) | 128 µg/mL (≈ 220 µM) | R | – | – | – | – | – | –
7 | CN(C)[C@@H]1C(O)=C(C(N)=O)C(=O)[C@@]2(O)C(O)=C3C(=O)c4c(O)cccc4[C@@](C)(O)[C@H]3C[C@@H]12 [Tetracycline] | S | 1 µg/mL (≈ 2.25 µM) | S | 8 µg/mL (≈ 18 µM) | 4 µg/mL (≈ 9 µM) | S | – | – | – | – | – | –
8 | CN[C@H](CC(C)C)C(=O)N[C@H]1C(=O)N[C@@H](CC(N)=O)C(=O)N[C@H]2C(=O)N[C@H]3C(=O)N[C@H](C(=O)N[C@H](C(=O)O)c4cc(O)cc(O)c4-c4cc3ccc4O)[C@H](O)c3ccc(c(Cl)c3)Oc3cc2cc(c3O[C@@H]2O[C@H](CO)[C@@H](O)[C@H](O)[C@H]2O[C@H]2C[C@](C)(N)[C@H](O)[C@H](C)O2)Oc2ccc(cc2Cl)[C@H]1O [Vancomycin] | S | – | R | 512 µg/mL (≈ 353 µM) | > 512 µg/mL | R | 1 µg/mL (≈ 0.69 µM) | – | resistant | – | – | –
9 | Gentamicin | S | – | S | – | – | R | – | – | – | 0.125 µg/mL | 2 µg/mL | 16 µg/mL
